Activity calls are given as the source filed them.
Experiments:
[1] = molecular target: Mitogen-activated protein kinase 10 (Homo sapiens, UniProt P53779); test: Dose response biochemical screening assay for inhibitors of c-Jun N-Terminal Kinase 3 (JNK3). [Related pubchem assays: 746 ]
[2] = molecular target: Peroxisome proliferator-activated receptor gamma/Nuclear receptor coactivator 2 (Homo sapiens, UniProt P37231); assay type: functional;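 also: agonist potency for raising coactivator recruitment to the receptor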
Sequence of Peroxisome proliferator-activated receptor gamma/Nuclear receptor coactivator 2 (P37231 whole entry): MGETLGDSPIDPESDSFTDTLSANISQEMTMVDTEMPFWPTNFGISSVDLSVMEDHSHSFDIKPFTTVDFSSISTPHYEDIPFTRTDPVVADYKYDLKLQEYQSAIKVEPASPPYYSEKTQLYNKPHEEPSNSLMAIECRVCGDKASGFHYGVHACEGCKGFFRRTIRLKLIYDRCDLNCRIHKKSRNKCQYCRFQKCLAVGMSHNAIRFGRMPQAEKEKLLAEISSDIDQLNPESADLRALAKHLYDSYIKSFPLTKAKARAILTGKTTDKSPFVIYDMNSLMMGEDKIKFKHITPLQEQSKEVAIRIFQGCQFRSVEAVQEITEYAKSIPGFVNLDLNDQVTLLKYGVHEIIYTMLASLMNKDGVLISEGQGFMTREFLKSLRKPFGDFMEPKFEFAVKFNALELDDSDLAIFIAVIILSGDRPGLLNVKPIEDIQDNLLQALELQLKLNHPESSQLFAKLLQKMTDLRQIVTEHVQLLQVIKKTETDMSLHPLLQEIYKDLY
Sequence of Peroxisome proliferator-activated receptor gamma/Nuclear receptor coactivator 2 (Q15596 whole entry, further chain): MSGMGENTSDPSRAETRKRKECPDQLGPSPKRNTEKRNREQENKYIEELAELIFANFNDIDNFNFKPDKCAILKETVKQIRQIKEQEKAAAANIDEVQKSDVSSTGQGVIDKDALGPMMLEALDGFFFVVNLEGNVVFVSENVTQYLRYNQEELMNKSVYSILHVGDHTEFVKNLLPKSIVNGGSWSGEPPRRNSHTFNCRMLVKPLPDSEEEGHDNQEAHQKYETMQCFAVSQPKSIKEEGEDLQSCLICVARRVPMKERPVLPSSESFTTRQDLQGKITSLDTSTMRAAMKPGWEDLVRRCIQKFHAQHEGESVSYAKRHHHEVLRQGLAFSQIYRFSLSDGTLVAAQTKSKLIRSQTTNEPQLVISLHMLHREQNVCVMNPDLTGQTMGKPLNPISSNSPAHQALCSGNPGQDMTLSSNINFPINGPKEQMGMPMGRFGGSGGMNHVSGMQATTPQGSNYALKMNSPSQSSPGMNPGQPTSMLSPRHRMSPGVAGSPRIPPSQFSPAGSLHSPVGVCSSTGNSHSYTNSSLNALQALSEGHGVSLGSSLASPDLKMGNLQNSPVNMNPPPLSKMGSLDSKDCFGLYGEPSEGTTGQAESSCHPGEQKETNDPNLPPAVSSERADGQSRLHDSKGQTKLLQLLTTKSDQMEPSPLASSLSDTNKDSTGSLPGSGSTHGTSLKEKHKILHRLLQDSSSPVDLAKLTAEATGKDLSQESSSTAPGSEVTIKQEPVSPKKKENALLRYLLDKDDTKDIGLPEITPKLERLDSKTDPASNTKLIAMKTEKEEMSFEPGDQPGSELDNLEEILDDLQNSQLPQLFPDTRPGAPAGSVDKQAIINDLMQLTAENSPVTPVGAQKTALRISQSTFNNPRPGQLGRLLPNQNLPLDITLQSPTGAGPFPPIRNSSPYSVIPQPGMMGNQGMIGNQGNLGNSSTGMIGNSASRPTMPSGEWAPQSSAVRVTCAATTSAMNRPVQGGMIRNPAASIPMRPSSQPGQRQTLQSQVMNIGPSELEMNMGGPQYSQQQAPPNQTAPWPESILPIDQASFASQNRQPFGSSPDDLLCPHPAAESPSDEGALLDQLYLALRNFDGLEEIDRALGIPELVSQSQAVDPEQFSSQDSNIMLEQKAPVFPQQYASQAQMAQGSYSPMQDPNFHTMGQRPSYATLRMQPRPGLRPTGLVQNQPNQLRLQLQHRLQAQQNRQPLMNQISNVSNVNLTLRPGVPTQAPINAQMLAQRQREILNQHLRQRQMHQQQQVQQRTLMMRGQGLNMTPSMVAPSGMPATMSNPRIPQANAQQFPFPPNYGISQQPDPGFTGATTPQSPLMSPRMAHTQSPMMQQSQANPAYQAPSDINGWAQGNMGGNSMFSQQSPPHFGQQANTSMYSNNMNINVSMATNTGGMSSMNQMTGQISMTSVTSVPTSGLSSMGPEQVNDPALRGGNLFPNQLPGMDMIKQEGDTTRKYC

[3] = molecular target: T1, Heat shock factor protein 1 (Mus musculus, UniProt P38532); test: enhancement of HSF1-driven luciferase signal – cell-based, NIH3T3, luminescence, dose retest, confirmation (AID 435004); assay type: functional;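 also: stress induced by proteasome inhibitor MG132 added 30 min after compound; luciferase reporter driven by HSF1 response element in NIH3T3 cells; actives raise luminescence as potentiators of the MG132 stress response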
T1 sequence (P38532 whole entry): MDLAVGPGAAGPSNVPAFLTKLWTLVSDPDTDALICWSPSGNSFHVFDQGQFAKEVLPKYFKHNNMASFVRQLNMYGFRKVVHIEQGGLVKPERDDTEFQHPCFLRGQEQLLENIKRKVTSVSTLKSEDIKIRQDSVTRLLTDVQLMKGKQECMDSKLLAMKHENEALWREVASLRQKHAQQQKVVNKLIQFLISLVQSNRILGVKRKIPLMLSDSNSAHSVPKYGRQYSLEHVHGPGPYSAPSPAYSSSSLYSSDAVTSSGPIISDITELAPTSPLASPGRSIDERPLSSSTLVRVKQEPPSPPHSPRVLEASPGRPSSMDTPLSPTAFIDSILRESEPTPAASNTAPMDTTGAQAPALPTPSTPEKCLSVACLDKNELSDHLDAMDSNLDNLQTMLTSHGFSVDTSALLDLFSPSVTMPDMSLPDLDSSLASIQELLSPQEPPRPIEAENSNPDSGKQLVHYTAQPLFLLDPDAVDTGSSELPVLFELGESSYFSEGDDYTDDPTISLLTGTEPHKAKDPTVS

[4] = molecular target: Peroxisome proliferator-activated receptor gamma/Nuclear receptor coactivator 1 (Homo sapiens, UniProt P37231); assay type: functional;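 also: agonist potency as compounds enhance coactivator SRC-1 recruitment to PPARgamma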
Sequence of Peroxisome proliferator-activated receptor gamma/Nuclear receptor coactivator 1 (P37231 whole entry): as the sequence (P37231 whole entry) above
Sequence of Peroxisome proliferator-activated receptor gamma/Nuclear receptor coactivator 1 (Q15788 whole entry, further chain): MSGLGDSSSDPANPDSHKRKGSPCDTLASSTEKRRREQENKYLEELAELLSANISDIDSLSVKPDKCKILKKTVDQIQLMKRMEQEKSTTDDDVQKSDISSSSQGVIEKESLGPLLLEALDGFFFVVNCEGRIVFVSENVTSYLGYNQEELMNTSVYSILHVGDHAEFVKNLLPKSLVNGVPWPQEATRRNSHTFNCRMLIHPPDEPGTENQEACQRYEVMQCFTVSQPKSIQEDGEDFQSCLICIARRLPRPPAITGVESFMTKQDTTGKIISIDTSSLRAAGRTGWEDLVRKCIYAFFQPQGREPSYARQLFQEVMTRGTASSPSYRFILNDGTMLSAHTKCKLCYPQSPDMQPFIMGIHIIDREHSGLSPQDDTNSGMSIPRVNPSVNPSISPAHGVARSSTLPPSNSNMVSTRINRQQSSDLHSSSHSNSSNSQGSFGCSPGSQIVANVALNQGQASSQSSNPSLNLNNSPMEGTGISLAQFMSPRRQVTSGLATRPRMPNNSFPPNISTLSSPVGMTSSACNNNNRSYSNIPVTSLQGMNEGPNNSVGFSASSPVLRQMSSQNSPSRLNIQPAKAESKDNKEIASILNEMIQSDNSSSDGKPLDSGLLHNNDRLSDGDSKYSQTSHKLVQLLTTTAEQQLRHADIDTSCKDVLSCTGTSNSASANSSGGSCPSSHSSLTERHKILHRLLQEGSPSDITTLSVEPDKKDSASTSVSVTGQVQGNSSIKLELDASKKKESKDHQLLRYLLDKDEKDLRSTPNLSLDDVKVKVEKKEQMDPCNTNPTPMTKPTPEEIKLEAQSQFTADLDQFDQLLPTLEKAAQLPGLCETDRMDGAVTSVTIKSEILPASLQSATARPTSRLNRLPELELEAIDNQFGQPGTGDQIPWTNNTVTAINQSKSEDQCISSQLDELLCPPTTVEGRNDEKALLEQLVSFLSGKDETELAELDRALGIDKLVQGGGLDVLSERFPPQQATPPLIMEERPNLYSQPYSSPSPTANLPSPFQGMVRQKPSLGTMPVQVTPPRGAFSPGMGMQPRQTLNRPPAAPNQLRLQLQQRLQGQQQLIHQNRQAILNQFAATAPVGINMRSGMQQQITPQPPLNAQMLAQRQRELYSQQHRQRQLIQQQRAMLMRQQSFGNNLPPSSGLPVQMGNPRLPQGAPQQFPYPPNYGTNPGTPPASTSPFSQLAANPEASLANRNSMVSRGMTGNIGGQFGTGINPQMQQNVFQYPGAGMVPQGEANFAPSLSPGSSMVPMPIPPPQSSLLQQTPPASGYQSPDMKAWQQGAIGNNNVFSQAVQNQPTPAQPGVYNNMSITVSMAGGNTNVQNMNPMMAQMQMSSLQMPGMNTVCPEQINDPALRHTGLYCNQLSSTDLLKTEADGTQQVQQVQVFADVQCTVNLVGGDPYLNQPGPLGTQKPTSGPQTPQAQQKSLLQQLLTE

[5] = molecular target: Peroxisome proliferator-activated receptor gamma/Nuclear receptor coactivator 3 (Homo sapiens, UniProt P37231); assay type: functional;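 also: agonist potency for raising coactivator recruitment to the receptor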
Cytochrome P450 2C19 = Cytochrome P450 2C19 (Homo sapiens, UniProt P33261); test: Cytochrome panel assay with activity outcomes. Panel member name: p450-cyp2c19 Compounds with AC50 equal or less than 10 uM are considered active; assay type: functional; conditions: read-out: AC50
Cytochrome P450 2C9 = Cytochrome P450 2C9 (Homo sapiens, UniProt P11712)
fMet-Leu-Phe receptor = molecular target: T2, fMet-Leu-Phe receptor (Homo sapiens, UniProt P21462); test: formyl peptide receptor binders – dose response (AID 519); assay type: functional
T2 sequence (P21462 whole entry): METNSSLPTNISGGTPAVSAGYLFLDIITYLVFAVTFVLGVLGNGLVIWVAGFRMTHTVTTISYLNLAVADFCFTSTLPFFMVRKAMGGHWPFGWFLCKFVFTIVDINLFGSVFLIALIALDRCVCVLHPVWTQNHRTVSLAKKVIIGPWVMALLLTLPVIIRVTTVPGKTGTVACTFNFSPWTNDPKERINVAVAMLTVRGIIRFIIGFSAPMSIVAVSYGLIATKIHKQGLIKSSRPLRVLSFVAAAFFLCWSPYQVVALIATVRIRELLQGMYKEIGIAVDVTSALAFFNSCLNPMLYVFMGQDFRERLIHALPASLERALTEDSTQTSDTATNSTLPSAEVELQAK

Cytochrome P450 1A2 = molecular target: T3, Cytochrome P450 1A2 (Homo sapiens, UniProt P05177);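 also: PubChem cytochrome P450 panel assay, CYP1A2 panel member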
T3 sequence (P05177 whole entry): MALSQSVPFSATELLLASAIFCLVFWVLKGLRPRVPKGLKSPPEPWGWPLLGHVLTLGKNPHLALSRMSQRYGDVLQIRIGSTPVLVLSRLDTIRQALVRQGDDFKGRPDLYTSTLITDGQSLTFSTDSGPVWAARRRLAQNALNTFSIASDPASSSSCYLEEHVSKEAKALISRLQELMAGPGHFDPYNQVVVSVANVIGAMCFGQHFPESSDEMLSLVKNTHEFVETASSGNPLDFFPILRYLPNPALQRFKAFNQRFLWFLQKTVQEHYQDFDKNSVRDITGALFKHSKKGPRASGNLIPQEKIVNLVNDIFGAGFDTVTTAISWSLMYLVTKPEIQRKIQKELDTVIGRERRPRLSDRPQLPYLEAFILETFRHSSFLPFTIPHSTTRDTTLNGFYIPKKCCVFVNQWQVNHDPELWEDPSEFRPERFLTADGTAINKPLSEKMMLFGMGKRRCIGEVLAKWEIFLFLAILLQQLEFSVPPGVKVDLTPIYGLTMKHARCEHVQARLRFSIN

[6] = molecular target: Glyceraldehyde-3-phosphate dehydrogenase (Homo sapiens, UniProt P04406)
Sequence of Glyceraldehyde-3-phosphate dehydrogenase (P04406 whole entry): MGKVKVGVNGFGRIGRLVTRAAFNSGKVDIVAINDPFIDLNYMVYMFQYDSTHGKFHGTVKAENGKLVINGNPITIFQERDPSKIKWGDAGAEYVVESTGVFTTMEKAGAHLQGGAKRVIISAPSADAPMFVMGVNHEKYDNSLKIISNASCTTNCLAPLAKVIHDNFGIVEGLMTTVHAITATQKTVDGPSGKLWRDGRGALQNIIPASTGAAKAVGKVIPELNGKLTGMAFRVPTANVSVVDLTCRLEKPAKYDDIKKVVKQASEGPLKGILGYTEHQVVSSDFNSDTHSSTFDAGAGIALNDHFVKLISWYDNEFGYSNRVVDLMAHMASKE

[7] = molecular target: T4, Low molecular weight phosphotyrosine protein phosphatase (Homo sapiens, UniProt P24666); assay type: functional; conditions: read-out: IC50_Mean;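 also: Dose-response confirmation assay measuring inhibition of LMPTP enzyme activity by fluorescence intensity read-out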
T4 sequence (P24666 whole entry): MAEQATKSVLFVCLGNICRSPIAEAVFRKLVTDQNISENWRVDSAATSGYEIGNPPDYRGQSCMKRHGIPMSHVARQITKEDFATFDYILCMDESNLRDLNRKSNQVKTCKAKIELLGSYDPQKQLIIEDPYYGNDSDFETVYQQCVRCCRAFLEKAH

[8] = viability of uninfected HEp-2 cells – cell-based, HTS, cytotoxicity control for RSV inhibitor project, dose response (AID 2410); assay type: functional; conditions: human respiratory syncytial virus
Prothrombin = Prothrombin (Homo sapiens, UniProt P00734); test: Thrombin 1536 HTS Dose Response Confirmation. [Related pubchem assays: 1046 (Thrombin 1536 HTS; hits were confirmed in this assay)]; assay type: functional
[9] = HIV-1 Vif–A3G interaction blockers – biochemical, TR-FRET, GST-Vif 1-94, biotin-A3G peptide, dose response retest, primary screen (AID 1117319); assay type: functional;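 also: TR-FRET signal of purified GST-Vif binding a biotinylated A3G peptide; inhibitors lower the FRET signal by blocking Vif and A3G binding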
[10] = test system: Streptococcus sp. 'group A'; test: Streptococcus pyogenes SK(-)GAS viability under kanamycin – luminescence, BacTiterGlo, confirmation, counter-screen for streptokinase expression inhibitor project, dose response (AID 1900); assay type: functional, organism-based
Streptococcus = test: GAS UMAA2166 growth inhibition – luminescence, BacTiterGlo, counter-screen for streptokinase expression inhibitor project, dose response (AID 1915); assay type: functional, organism-based;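 also: potency for reduction of bacterial viability or growth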
Streptokinase A = molecular target: T5, Streptokinase A (Streptococcus pyogenes serotype M1, UniProt P10520); test: viability-normalized secreted streptokinase activity reduction – plasminogen activation absorbance, OD405, dose response (AID 1914); assay type: functional, Streptococcus pyogenes M1 GAS;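 also: secreted streptokinase activity via plasminogen activation per viability signal from cell pellet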
T5 sequence (P10520 whole entry): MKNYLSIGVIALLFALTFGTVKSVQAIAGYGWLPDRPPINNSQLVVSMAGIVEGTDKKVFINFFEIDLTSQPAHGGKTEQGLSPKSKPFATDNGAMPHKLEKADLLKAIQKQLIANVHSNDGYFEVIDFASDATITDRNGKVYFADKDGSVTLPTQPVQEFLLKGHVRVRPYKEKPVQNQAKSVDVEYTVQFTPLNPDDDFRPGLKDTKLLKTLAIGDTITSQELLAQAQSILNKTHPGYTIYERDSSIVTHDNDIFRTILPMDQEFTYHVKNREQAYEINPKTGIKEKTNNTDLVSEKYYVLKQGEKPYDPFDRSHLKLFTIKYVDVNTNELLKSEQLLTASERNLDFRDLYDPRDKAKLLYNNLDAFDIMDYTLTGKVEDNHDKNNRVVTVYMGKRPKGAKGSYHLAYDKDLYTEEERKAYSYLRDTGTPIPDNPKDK

Cytochrome P450 2D6 = Cytochrome P450 2D6 (Homo sapiens, UniProt P10635);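 also: CYP2D6 member of a cytochrome P450 panel assay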
Protein skinhead-1 = molecular target: T6, Protein skinhead-1 (Caenorhabditis elegans, UniProt P34707); assay type: functional
T6 sequence (P34707 whole entry): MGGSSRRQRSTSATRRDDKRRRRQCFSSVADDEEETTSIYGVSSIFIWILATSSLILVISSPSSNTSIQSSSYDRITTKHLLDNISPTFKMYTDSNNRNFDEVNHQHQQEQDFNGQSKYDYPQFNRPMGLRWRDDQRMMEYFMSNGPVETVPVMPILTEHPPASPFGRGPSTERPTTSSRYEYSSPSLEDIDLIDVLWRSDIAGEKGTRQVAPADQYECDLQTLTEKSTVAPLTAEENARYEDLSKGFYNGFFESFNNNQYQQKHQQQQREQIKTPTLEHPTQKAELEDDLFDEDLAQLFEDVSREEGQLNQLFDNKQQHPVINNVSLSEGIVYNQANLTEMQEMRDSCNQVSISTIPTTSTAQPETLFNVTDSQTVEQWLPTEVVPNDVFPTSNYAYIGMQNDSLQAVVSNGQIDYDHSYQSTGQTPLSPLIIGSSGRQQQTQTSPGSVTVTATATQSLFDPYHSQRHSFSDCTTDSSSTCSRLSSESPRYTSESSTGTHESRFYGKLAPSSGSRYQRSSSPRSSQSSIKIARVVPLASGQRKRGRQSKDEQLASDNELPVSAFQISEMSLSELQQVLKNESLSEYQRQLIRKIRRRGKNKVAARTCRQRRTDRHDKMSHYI

[11] = Luminescence Cell-Based Dose Retest to Confirm Inhibitors of Cancer Stem Cells. [Related pubchem assays (depositor defined):AID2717, AID2721]; assay type: functional; conditions: Homo sapiens

Sequence of Mitogen-activated protein kinase 10 (P53779 whole entry): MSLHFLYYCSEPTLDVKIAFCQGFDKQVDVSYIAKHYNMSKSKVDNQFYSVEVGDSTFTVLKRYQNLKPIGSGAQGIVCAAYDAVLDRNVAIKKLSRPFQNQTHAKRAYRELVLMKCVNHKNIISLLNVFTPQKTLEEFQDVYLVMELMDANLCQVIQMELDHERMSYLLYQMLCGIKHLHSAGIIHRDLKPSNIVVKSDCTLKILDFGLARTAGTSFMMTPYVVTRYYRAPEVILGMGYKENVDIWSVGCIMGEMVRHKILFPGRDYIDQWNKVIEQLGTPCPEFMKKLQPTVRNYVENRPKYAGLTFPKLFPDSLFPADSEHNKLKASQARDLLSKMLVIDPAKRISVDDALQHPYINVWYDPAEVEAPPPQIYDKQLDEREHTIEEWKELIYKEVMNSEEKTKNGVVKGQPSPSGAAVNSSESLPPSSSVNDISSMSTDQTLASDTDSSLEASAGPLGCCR

## COc1ccc(C(C)=O)cc1COC(=O)c1c(C)noc1C
[1]
  IC50: 39.8 µM (not active)

## Cc1ccc(-n2c(C)cc(C(=O)COc3c(CO)cc(F)cc3CO)c2C)cc1C
[2]
  EC50: > 79.4 µM (not active)
[3]
  EC50: > 260 µM (inactive)
[4]
  EC50: > 79.4 µM (not active)
[5]
  EC50: > 79.4 µM (not active)

## COc1ccccc1C1C(C(=O)c2ccccc2)=C(O)C(=O)N1CCO (configuration not stated)
Cytochrome P450 2C19
  AC50: 39.8 µM (inconclusive)
Cytochrome P450 2C9
  AC50: 39.8 µM (inconclusive)
fMet-Leu-Phe receptor
  Ki: 19.7 µM (inactive)
Cytochrome P450 1A2
  AC50: 0.794 µM (inconclusive)

## COc1ccc(C2(CNC(=O)/C=C\c3ccco3)CCCC2)cc1OC
[2]
  EC50: > 79.4 µM (not active)
[4]
  EC50: > 79.4 µM (not active)
[5]
  EC50: > 79.4 µM (not active)

## Cc1ccc(N2C(=O)C(Cl)=C(N(C)C)C2=O)cc1
[6]
  IC50: > 50 µM (inconclusive)

## CN(C)S(=O)(=O)c1ccc(C(=O)OCC(=O)c2ccc3c(c2)NC(=O)CO3)cc1
[7]
  IC50: 29.3 µM (inactive)

## Cc1ccccc1CC1(CO)CCCN(C(=O)CCC(=O)c2ccccc2)C1 (configuration not stated)
[2]
  EC50: > 79.4 µM (not active)
[4]
  EC50: > 79.4 µM (not active)
[8]
  CC50: 28.5 µM (active)
[5]
  EC50: > 79.4 µM (not active)

## CCOC(=O)n1cc(-c2cnc(CNC(=O)C(C)(c3ccccc3)c3ccccc3)o2)c2ccccc21
[2]
  EC50: > 79.4 µM (not active)
[4]
  EC50: > 79.4 µM (not active)
[5]
  EC50: > 79.4 µM (not active)

## O=C(NC1CCCC1)c1cccnc1N1CCCCCC1
[1]
  IC50: > 93.1 µM (not active)
Cytochrome P450 2C9
  AC50: 35.5 µM (inconclusive)

## COc1ccccc1CNC(=O)c1cn(C)c2ccc(S(=O)(=O)N3CCCC3)cc2c1=O
Prothrombin
  IC50: 5.95 µM (active)

## Oc1c(C(c2ccccc2)N2CCN(Cc3ccccc3)CC2)sc2ncnn12 (configuration not stated)
[9]
  IC50: > 100 µM (active)

## C[C@H]1CN(C2=C(Cl)C(=O)N(c3cccc(C(F)(F)F)c3)C2=O)CCN1
[6]
  IC50: > 50 µM (inconclusive)

## O=C(CSc1nc(O)c2cnn(-c3ccc(F)cc3)c2n1)N1CCCCCC1
Prothrombin
  IC50: > 50 µM (not active)

## CCn1cc(C(=O)NCc2ccc3c(c2)OCO3)c(=O)c2cc(F)c(N3CCN(C(=O)c4ccco4)CC3)cc21
[10]
  EC50: 6.52 µM (active)
Streptococcus
  EC50: 20.8 µM (active)
[7]
  IC50: 29.4 µM (inactive)
Streptokinase A
  EC50: > 150 µM (not active)

## CCC(C)(C(=O)NC1CCCC1)N(CC1CCCO1)C(=O)c1ccc2c(c1)OCO2 (configuration not stated)
Cytochrome P450 2D6
  AC50: 35.5 µM (inconclusive)
Cytochrome P450 2C19
  AC50: 5.62 µM (inconclusive)
fMet-Leu-Phe receptor
  Ki: > 66.7 µM (inactive)
Cytochrome P450 1A2
  AC50: 39.8 µM (inconclusive)

## Cn1c(CN2CCOCC2)nc2cc(NC(=O)c3ccc(F)cc3)ccc21
[9]
  IC50: > 100 µM (active)

## COc1cc(CN/C(C)=C(\C#N)C(N)=O)cc(OC)c1OC
[1]
  IC50: 7.16 µM (active)

## COC(=O)c1[nH]c(C)c(C(=O)C2=C(O)C(=O)N(CCCN3CCOCC3)C2c2ccccn2)c1C (configuration not stated)
Protein skinhead-1
  IC50: > 100 µM (inactive)
fMet-Leu-Phe receptor
  Ki: 9.7 µM (active)

## Oc1[nH]c2ccccc2c1/C=N/c1ccc2c(c1)OCCO2
[1]
  IC50: 89.9 µM (not active)

## COc1cccc2sc(N3CCN(c4nc5ccccc5s4)CC3)nc12
[2]
  EC50: 19.1 µM (not active)
[4]
  EC50: 13.4 µM (not active)
[5]
  EC50: 22.9 µM (not active)

## CC1(C)CN(c2ccccc2)N(C(=O)c2ccc(F)cc2)C1=O
Prothrombin
  IC50: 0.837 µM (active)
[11]
  AC50: 3.63 µM (active)

## Cc1ccc(-n2nc3c(N4CCC(C(=O)NCc5ccc(C)o5)CC4)nnc(C)c3c2C)cc1
[7]
  IC50: 23 µM (inactive)

## COc1ccc(/C=N\NS(=O)(=O)c2ccc(Cl)cc2)cc1COc1ccccc1[N+](=O)[O-]
Prothrombin
  IC50: > 50 µM (not active)

Reference: ChEMBL document CHEMBL1201862, “PubChem BioAssay data set” (2004)
